The structures appear in SMILES notation.

In this test the target is T1, Human CaV2.2 channels (Homo sapiens, UniProt Q00975).
T1 construct: expressed in transfected cells
T1 sequence (Q00975 whole entry): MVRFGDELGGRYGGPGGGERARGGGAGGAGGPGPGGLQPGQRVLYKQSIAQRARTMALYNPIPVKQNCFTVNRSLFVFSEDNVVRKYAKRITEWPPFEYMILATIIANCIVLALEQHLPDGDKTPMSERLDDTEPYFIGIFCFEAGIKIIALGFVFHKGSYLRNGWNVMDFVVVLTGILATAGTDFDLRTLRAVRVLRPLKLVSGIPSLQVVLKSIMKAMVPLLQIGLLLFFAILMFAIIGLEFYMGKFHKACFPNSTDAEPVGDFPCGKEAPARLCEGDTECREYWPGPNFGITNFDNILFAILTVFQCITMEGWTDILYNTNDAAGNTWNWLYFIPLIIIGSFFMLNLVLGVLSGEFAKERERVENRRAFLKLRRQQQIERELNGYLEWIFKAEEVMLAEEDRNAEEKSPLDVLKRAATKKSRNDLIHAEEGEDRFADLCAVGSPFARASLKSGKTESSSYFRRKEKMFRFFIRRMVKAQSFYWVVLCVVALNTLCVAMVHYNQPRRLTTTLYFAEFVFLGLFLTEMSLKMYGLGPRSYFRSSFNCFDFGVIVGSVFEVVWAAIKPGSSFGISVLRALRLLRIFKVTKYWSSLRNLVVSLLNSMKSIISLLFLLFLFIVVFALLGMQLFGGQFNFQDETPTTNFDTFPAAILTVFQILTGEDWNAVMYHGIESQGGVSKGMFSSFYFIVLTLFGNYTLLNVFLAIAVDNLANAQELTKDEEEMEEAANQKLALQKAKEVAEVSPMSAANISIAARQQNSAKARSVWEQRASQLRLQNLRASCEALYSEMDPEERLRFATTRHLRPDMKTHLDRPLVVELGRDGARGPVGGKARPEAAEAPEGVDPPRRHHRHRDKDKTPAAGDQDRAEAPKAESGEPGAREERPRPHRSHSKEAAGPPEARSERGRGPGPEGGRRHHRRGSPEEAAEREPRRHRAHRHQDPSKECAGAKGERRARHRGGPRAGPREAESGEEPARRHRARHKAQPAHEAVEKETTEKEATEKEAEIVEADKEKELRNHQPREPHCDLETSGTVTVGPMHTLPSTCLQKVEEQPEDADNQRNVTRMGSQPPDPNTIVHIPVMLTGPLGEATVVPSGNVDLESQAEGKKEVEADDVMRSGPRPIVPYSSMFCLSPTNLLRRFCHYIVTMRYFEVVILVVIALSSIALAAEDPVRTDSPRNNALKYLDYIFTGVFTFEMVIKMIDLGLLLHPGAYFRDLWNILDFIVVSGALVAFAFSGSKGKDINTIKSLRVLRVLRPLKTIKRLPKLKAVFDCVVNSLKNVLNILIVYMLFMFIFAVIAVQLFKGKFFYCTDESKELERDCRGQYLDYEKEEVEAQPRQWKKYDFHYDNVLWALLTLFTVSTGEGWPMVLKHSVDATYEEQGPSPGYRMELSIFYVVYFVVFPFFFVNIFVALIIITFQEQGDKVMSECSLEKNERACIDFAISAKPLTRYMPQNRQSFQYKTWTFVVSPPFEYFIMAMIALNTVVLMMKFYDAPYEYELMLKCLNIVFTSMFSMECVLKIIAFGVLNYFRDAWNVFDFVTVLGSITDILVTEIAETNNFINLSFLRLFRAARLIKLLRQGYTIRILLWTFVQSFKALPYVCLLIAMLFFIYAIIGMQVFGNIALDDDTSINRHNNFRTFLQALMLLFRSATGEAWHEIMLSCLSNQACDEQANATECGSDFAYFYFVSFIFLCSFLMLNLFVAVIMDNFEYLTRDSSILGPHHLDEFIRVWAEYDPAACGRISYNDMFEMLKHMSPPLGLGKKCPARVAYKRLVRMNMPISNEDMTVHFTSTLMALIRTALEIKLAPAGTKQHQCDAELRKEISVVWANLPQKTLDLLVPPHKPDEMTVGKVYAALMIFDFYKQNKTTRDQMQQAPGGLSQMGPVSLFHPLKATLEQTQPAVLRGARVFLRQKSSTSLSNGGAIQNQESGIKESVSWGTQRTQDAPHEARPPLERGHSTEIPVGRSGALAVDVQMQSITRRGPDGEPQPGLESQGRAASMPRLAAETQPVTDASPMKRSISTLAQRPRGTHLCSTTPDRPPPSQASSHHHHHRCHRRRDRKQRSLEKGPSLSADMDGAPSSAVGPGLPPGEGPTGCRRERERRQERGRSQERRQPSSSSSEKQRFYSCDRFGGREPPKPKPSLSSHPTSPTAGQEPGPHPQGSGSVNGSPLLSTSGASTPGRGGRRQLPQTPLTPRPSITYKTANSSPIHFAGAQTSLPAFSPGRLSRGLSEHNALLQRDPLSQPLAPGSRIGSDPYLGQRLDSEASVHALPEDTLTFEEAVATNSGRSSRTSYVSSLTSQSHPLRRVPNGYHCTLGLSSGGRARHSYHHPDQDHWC
T1 sequence (P54289 25-1103, further chain): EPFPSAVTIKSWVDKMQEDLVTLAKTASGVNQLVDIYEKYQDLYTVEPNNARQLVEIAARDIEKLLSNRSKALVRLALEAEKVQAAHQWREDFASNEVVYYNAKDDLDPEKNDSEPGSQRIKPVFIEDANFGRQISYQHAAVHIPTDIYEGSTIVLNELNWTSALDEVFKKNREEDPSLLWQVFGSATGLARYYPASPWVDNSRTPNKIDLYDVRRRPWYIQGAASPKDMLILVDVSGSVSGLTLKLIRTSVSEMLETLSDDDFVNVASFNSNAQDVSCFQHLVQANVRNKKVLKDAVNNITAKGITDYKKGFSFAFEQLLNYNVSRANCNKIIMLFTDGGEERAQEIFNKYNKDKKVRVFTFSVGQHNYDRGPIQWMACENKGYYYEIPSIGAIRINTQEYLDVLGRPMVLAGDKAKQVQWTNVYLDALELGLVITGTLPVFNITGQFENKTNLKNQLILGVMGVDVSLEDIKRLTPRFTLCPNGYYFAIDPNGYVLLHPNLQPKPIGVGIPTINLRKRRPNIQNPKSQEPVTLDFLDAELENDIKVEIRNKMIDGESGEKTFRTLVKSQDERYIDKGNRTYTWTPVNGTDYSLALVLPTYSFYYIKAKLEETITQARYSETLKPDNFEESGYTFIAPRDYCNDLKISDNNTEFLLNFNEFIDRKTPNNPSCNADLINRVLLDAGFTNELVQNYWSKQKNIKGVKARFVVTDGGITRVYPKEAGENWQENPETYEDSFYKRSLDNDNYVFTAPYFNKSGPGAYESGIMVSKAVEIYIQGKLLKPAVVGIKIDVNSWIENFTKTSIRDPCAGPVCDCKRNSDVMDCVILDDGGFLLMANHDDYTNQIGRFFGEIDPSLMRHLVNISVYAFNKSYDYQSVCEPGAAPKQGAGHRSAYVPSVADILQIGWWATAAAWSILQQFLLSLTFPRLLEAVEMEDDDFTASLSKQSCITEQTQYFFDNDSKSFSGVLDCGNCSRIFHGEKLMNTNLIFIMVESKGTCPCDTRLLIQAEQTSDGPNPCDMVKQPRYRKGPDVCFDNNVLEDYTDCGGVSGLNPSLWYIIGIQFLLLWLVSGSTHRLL
T1 sequence (P54284 whole entry, further chain): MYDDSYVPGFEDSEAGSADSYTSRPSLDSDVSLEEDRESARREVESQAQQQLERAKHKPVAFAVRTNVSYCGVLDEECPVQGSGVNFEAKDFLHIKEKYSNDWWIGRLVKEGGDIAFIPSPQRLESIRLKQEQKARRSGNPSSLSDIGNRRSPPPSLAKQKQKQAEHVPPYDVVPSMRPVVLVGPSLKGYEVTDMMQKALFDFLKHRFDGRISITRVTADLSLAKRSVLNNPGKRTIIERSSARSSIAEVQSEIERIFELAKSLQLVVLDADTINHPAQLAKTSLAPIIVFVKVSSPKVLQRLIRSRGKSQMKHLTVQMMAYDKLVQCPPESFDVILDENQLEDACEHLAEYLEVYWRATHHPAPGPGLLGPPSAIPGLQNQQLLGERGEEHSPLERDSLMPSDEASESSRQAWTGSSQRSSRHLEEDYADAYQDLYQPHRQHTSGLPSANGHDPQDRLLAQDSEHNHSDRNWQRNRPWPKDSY
Briefly: Fluorescent assay for CaV2.2 channels using potassium depolarization to induce channel opening (FLIPR, Fluo-4). The conditions noted are these: 3 μM test compound, 30 mM KCl, HEK293 cells stably expressing human CaV2.2; read-out: %-Inhib (CaV2.2) @3 μM @30 mM KCl. The format is cell-based. In outline:
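HEK293 cells stably co-expressing CaV2.2 with α2δ and β subunits plus Kir2.3 were Fluo-4 loaded, then preincubated 15 min at 25 °C with compound in 30 mM KCl buffer, pH 7.4. Depolarization was by adding buffer containing 210 mM KCl. Inhibition was taken from baseline-normalized peak fluorescence amplitude (ex 480/em 535 nm).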
In the case of `CN(CC(C)(C)O)C(=O)c1c(-c2ccc(Cl)cc2F)cc(C(F)(F)F)n1Cc1ccccc1` [SC-87, 1-Benzyl-3-(4-chloro-2-fluoro-phenyl)-N-(2-hydroxy-2-methyl-propyl)-N-methyl-5-(trifluoromethyl)-1H-pyrrole-2-carboxylic acid amide], the inhibition at 3 µM was > 95%.

For the compound `CN(Cc1ccncn1)C(=O)c1c(-c2ccc(Cl)cc2)cc(C(F)(F)F)n1Cc1ccccc1` [SC-207, 1-Benzyl-3-(4-chlorophenyl)-N-methyl-N-(pyrimidin-4-yl-methyl)-5-(trifluoromethyl)-1H-pyrrole-2-carboxylic acid amide], the inhibition at 3 µM was > 95%.

On to `Cc1c(-c2ccc(OC(F)(F)F)cc2)c(C(=O)N(C)CC(C)(C)C)n(Cc2ccccc2)c1C(F)(F)F` [SC-240, 1-Benzyl-N-(2,2-dimethyl-propyl)-N,4-dimethyl-5-(trifluoromethyl)-3-[4-(trifluoromethyloxy)-phenyl]-1H-pyrrole-2-carboxylic acid amide], for which the inhibition at 3 µM lay within 30 to 40%.

Take `Cc1c(-c2ccc(F)c(Cl)c2)c(C(=O)N(C)C2CCOCC2)n(Cc2ccccc2)c1C(F)(F)F` [SC-253, 1-Benzyl-3-(3-chloro-4-fluoro-phenyl)-N,4-dimethyl-N-tetrahydro-pyran-4-yl-5-(trifluoromethyl)-1H-pyrrole-2-carboxylic acid amide]: the inhibition at 3 µM was > 95%. `CCOC(=O)C1(N(C)C(=O)c2c(-c3ccc(Cl)cc3)c(C)c(C(F)(F)F)n2Cc2ccccc2)CC1` [SC-52, 1[[1-Benzyl-3-(4-chlorophenyl)-4-methyl-5-(trifluoromethyl)-1H-pyrrole-2-carbonyl]-methyl-amino]-cyclopropane-1-carboxylic acid ethyl ester]: the inhibition at 3 µM is > 95%. In the case of `CN(Cc1nccn1C)C(=O)c1c(-c2ccc(Cl)cc2)cc(C(F)(F)F)n1Cc1ccccc1` [SC-212, 1-Benzyl-3-(4-chlorophenyl)-N-methyl-N-[(1-methyl-1H-imidazol-2-yl)-methyl]-5-(trifluoromethyl)-1H-pyrrole-2-carboxylic acid amide], the inhibition at 3 µM is > 95%. With `Cc1c(-c2ccc(Cl)cc2)c(C(=O)N(C)C2CCN(C)CC2)n(Cc2ccccc2)c1C(F)(F)F` [SC-39, 1-Benzyl-3-(4-chlorophenyl)-N,4-dimethyl-N-(1-methyl-piperidin-4-yl)-5-(trifluoromethyl)-1H-pyrrole-2-carboxylic acid amide], the inhibition at 3 µM was > 95%.

With `Cc1c(-c2ccc(Cl)cc2)c(C(=O)N(C)C2CCOCC2)n(Cc2ccccc2)c1C(F)(F)F` [SC-11, 1-Benzyl-3-(4-chlorophenyl)-N,4-dimethyl-N-tetrahydro-pyran-4-yl-5-(trifluoromethyl)-1H-pyrrole-2-carboxylic acid amide], the inhibition at 3 µM was > 95%. The value for `CNC(=O)c1c(-c2ccc(Cl)cc2)c(C)c(C(F)(F)F)n1Cc1ccccc1` [SC-22, 1-Benzyl-3-(4-chlorophenyl)-N,4-dimethyl-5-(trifluoromethyl)-1H-pyrrole-2-carboxylic acid amide] was 75 to 95%; that for `Cc1c(-c2ccc(Cl)cc2F)c(C(=O)N(C)C2CCS(=O)(=O)C2)n(Cc2ccccc2)c1C(F)(F)F` (centres unmarked) [SC-171, 1-Benzyl-3-(4-chloro-2-fluoro-phenyl)-N-(1,1-dioxo-thiolan-3-yl)-N,4-dimethyl-5-(trifluoromethyl)-1H-pyrrole-2-carboxylic acid amide] was > 95%; that for `Cc1c(-c2ccc(Cl)cc2)c(C(=O)N2CCOCC2)n(Cc2ccccc2)c1C(F)F` [SC-41, [1-Benzyl-3-(4-chlorophenyl)-5-(difluoro-methyl)-4-methyl-1H-pyrrol-2-yl]-morpholin-4-yl-methanone] was > 95%.

For the compound `Cc1c(-c2ccc(Cl)cc2)c(C(=O)N(C)CC2CCOC2)n(Cc2ccccc2)c1C(F)(F)F` (centres unmarked) [SC-121, 1-Benzyl-3-(4-chlorophenyl)-N,4-dimethyl-N-(tetrahydro-furan-3-yl-methyl)-5-(trifluoromethyl)-1H-pyrrole-2-carboxylic acid amide], the inhibition at 3 µM was > 95%. The value for `CN(CC(C)(C)C)C(=O)c1c(-c2ccc(Cl)cc2)cc(C(F)(F)F)n1Cc1cccc(S(C)(=O)=O)c1` [SC-266, 3-(4-Chlorophenyl)-N-(2,2-dimethyl-propyl)-N-methyl-1-[(3-methylsulfonyl-phenyl)-methyl]-5-(trifluoromethyl)-1H-pyrrole-2-carboxylic acid amide] was 75 to 95%; that for `Cc1c(-c2ccc(Cl)cc2F)c(C(=O)NC2CC2)n(Cc2ccccc2)c1C(F)(F)F` [SC-172, 1-Benzyl-3-(4-chloro-2-fluoro-phenyl)-N-cyclopropyl-4-methyl-5-(trifluoromethyl)-1H-pyrrole-2-carboxylic acid amide] was 75 to 95%. For the compound `Cc1c(-c2ccc(Cl)cc2)c(C(=O)N(C)CC2CCCO2)n(Cc2ccccc2)c1C(F)(F)F` (centres unmarked) [SC-134, 1-Benzyl-3-(4-chlorophenyl)-N,4-dimethyl-N-(tetrahydro-furan-2-yl-methyl)-5-(trifluoromethyl)-1H-pyrrole-2-carboxylic acid amide], the inhibition at 3 µM was > 95%. Regarding `Cc1c(-c2ccc(Cl)cc2)c(C(=O)N2CCOC(=O)C2)n(Cc2ccccc2)c1C(F)(F)F` [SC-50, 4-[1-Benzyl-3-(4-chlorophenyl)-4-methyl-5-(trifluoromethyl)-1H-pyrrole-2-carbonyl]-morpholin-2-one], the inhibition at 3 µM was in the range of 75 to 95%. `CC(=O)N1CCN(C(=O)c2c(-c3ccc(Cl)cc3)cc(C(F)(F)F)n2Cc2ccccc2)CC1` [SC-209, 1-[4-[1-Benzyl-3-(4-chlorophenyl)-5-(trifluoromethyl)-1H-pyrrole-2-carbonyl]-piperazin-1-yl]-ethanone]: the inhibition at 3 µM is > 95%.

As to `Cc1c(-c2ccc(Cl)cc2F)c(C(=O)N(C)CC(C)(C)O)n(Cc2ccccc2)c1C(F)(F)F` [SC-58, 1-Benzyl-3-(4-chloro-2-fluoro-phenyl)-N-(2-hydroxy-2-methyl-propyl)-N,4-dimethyl-5-(trifluoromethyl)-1H-pyrrole-2-carboxylic acid amide], the inhibition at 3 µM was > 95%.

For the compound `CN(C(=O)c1c(-c2ccc(Cl)cc2)cc(C(F)(F)F)n1Cc1ccccc1)C1CCS(=O)(=O)CC1` [SC-193, 1-Benzyl-3-(4-chlorophenyl)-N-(1,1-dioxo-thian-4-yl)-N-methyl-5-(trifluoromethyl)-1H-pyrrole-2-carboxylic acid amide], the inhibition at 3 µM is > 95%. In the case of `Cc1c(-c2ccc(Cl)cc2)c(C(=O)N(C)C(CO)C(C)(C)C)n(Cc2ccccc2)c1C(F)(F)F` (centres unmarked) [SC-124, 1-Benzyl-3-(4-chlorophenyl)-N-[1-(hydroxymethyl)-2,2-dimethyl-propyl]-N,4-dimethyl-5-(trifluoromethyl)-1H-pyrrole-2-carboxylic acid amide] it was > 95%; in that of `Cc1c(-c2ccc(Cl)cc2F)c(C(=O)N2CCNC(=O)C2)n(Cc2ccccc2)c1C(F)(F)F` [SC-61, 4-[1-Benzyl-3-(4-chloro-2-fluoro-phenyl)-4-methyl-5-(trifluoromethyl)-1H-pyrrole-2-carbonyl]-piperazin-2-one], > 95%. The value for `Cc1c(-c2ccc(F)c(Cl)c2)c(C(=O)N(C)C(C)(C)CO)n(Cc2ccccc2)c1C(F)(F)F` [SC-257, 1-Benzyl-3-(3-chloro-4-fluoro-phenyl)-N-(2-hydroxy-1,1-dimethyl-ethyl)-N,4-dimethyl-5-(trifluoromethyl)-1H-pyrrole-2-carboxylic acid amide] was 75 to 95%; that for `Cc1c(-c2ccc(F)cc2)c(C(=O)N(C)CC(C)(C)C)n(Cc2ccccc2)c1C(F)(F)F` [SC-224, 1-Benzyl-N-(2,2-dimethyl-propyl)-3-(4-fluorophenyl)-N,4-dimethyl-5-(trifluoromethyl)-1H-pyrrole-2-carboxylic acid amide] was 75 to 95%; that for `Cc1cc(CN(C)C(=O)c2c(-c3ccc(Cl)cc3)c(C)c(C(F)(F)F)n2Cc2ccccc2)no1` [SC-142, 1-Benzyl-3-(4-chlorophenyl)-N,4-dimethyl-N-[(5-methyl-isoxazol-3-yl)-methyl]-5-(trifluoromethyl)-1H-pyrrole-2-carboxylic acid amide] was > 95%. The value for `Cc1c(-c2ccc(OC(F)(F)F)cc2)c(C(=O)N(C)C2CCOCC2)n(Cc2ccccc2)c1C(F)(F)F` [SC-237, 1-Benzyl-N,4-dimethyl-N-tetrahydro-pyran-4-yl-5-(trifluoromethyl)-3-[4-(trifluoromethyloxy)-phenyl]-1H-pyrrole-2-carboxylic acid amide] was 75 to 95%; that for `Cc1c(-c2ccc(Cl)cc2)c(C(=O)N(C)CC2CCC[C@@H]2O)n(Cc2ccccc2)c1C(F)(F)F` (stereo partly drawn) [SC-135, 1-Benzyl-3-(4-chlorophenyl)-N-[[(2S)-2-hydroxy-cyclopentyl]-methyl]-N,4-dimethyl-5-(trifluoromethyl)-1H-pyrrole-2-carboxylic acid amide] was > 95%. For `Cc1c(-c2ccc(Cl)cc2F)c(C(=O)N(C)CC(C)(C)C)n(Cc2ccccc2)c1C(F)(F)F` [SC-59, 1-Benzyl-3-(4-chloro-2-fluoro-phenyl)-N-(2,2-dimethyl-propyl)-N,4-dimethyl-5-(trifluoromethyl)-1H-pyrrole-2-carboxylic acid amide], the inhibition at 3 µM is > 95%.

For `CN(CC(C)(C)C)C(=O)c1c(-c2ccc(Cl)cc2F)cc(C(F)(F)F)n1Cc1ccccc1` [SC-88, 1-Benzyl-3-(4-chloro-2-fluoro-phenyl)-N-(2,2-dimethyl-propyl)-N-methyl-5-(trifluoromethyl)-1H-pyrrole-2-carboxylic acid amide], the inhibition at 3 µM fell in the range of 75 to 95%. The value for `Cc1c(-c2ccc(C(F)(F)F)cc2)c(C(=O)N(C)C2CC2)n(Cc2ccccc2)c1C(F)(F)F` [SC-230, 1-Benzyl-N-cyclopropyl-N,4-dimethyl-5-(trifluoromethyl)-3-[4-(trifluoromethyl)-phenyl]-1H-pyrrole-2-carboxylic acid amide] was 40 to 75%.

(Values after patent publication US9302988B2, “Fluoromethyl-substituted pyrrole carboxamides” (GRÜNENTHAL GMBH, priority 2012, dated 2016).)
